Values joined by “and” are separate entries in the source; they are usually repeats but may differ in a detail not shown here. Equal values may be shown once. Read-outs that look alike come from different tables or passages of the source. Ends that are not written are not given here.
Key:
S. aureus ATCC 25923 = type: cell-based, Staphylococcus aureus
sheep erythrocytes = test: Hemolysis assay; type: cell-based; details: for hemolytic activity, in words: 6.25 to 50 µg/mL, sheep erythrocytes, 37 °C, 1 h
Method: Hemolytic activity of peptides was assessed as described by Dong et al., with some modifications. Fresh defibrinated sheep blood was obtained from the Institute of Virology, Vaccines and Sera “Torlak” (Belgrade, Serbia). Erythrocytes were washed three times with sterile Tris-buffered saline (TBS, 10 mM TRIS-HCl, pH 7.4, 150 mM NaCl) by centrifugation at 800× g for 5 min and resuspended to a final 2% (v/v) erythrocyte suspension in TBS.
Peptide solutions (0.02 M HCl) were diluted in Tris-buffered saline (TBS, 10 mM TRIS-HCl, pH 7.4, 150 mM NaCl) to final concentrations ranging from 6.25 to 50 µg/mL. In a 96-well flat-bottom plate, 100 µL of peptide solution was mixed with 100 µL of erythrocyte suspension and incubated at 37 °C for 1 h.
After incubation, the plates were centrifuged at 1000× g for 5 min, and 100 µL of the supernatant was transferred to a flat-bottom 96-well plate. Absorbance was measured at 540 nm using a microplate reader (model BioTek Epoch Microplate Spectrophotometer; Agilent Technologies, Winooski, VT, USA).
Hemolysis (%) was calculated relative to a negative control (TBS; 0% lysis) and a positive control (0.1% SDS; 100% lysis) using the formula: Hemolysis (%)=Asample−ATBS/ASDS−ATBS×100
The assay was performed in triplicate.

Danio rerio embryos = test: Zebrafish embryo toxicity (OECD TG 236); type: in vivo; details: for LC50 (zebrafish embryos): exposure to 120 hpf, 28 °C, 10 embryos/well, triplicate, LL.2 model, mean ± SD, n = 3
Method: Embryos were exposed to six different increasing concentrations of each peptide for 5 consecutive days (120 hfp) and examined for survival and signs of toxicity, following toxicological endpoints (Table S1).
The toxicity of synthetic peptide variants was assessed in vivo using Danio rerio embryos, in accordance with OECD Test Guideline 236 (Fish Embryo Acute Toxicity Test) and the European Directive 2010/63/EU on the protection of animals used for scientific purposes, according to Aleksic et al.. All procedures were conducted at the Institute of Molecular Genetics and Genetic Engineering, University of Belgrade.
Wild-type adult zebrafish were maintained under standard laboratory conditions (28 °C; 14:10 h light–dark cycle). Embryos were obtained via pairwise mating and collected within 1 h post-fertilization (hpf). At 5 hpf, the embryos were randomly distributed into 24-well plates (10 embryos/well, 1 mL embryo medium per well) containing embryo water (0.2 mg/mL Instant Ocean® salts in distilled water). Peptides were tested at five concentrations (e.g., 1.56–25 µg/mL) in triplicate. Peptide solvent was used as a negative control. The plates were incubated at 28 °C without media replacement.
Embryonic development was monitored using an inverted microscope (Zeiss Stemi 508; Carl Zeiss Microscopy GmbH, Jena, Germany). Lethal endpoints and sublethal malformations were scored according to OECD guidelines (Table S1). At 120 hpf, the embryos were anesthetized using 0.1% tricaine, photographed, and euthanized via freezing at −20 °C for 24 h.
LC50 values were estimated using the log–logistic binomial model (LL.2) from the drc package in R.
Dose–response curves and LC50 values were estimated using the log–logistic binomial model (LL.2) from the drc package in R [79] (version 2025.05.0). Mortality data were modeled as proportions of dead individuals relative to total individuals tested, and 95% confidence intervals for LC50 were calculated using the delta method.

agrA = details: half MIC, 16–18 h, 37 °C, normalised to gmk, duplicate
Description: (§1) Six virulence-related genes were selected (agrA, clfA, icaR, lukSPV, spa, and hla) to capture a representative profile of quorum sensing regulation (agrA), adhesion (clfA), biofilm repression (icaR), immune evasion (spa), and cytolytic toxin production (lukSPV and hla), providing an exploratory view of how peptide treatment influences the distinct profile of S. aureus pathogenicity.
(§2) The effect of sub-inhibitory peptide concentrations on S. aureus ATCC 25923 virulence gene expression was evaluated using quantitative real-time PCR (RT-qPCR). […] Untreated bacterial cultures in corresponding media served as controls.
(§3) Total RNA was extracted using the RNeasy Mini Kit (QIAGEN GmbH, Hilden, Germany). Samples were treated with Dnase I (Thermo Fisher Scientific) to remove genomic DNA contamination. RNA concentration and purity were determined using a NanoDrop spectrophotometer (A260/A280 ratio 1.9–2.1).
(§4) Complementary DNA (cDNA) synthesis was performed using […] of total RNA and the RevertAid RT Reverse Transcription Kit (Thermo Fisher Scientific) with random hexamer primers, according to the manufacturer’s instructions. Quantitative PCR was performed using FastGen 2x IC Green qPCR Universal (Nippon Genetics) on a LineGene 9600 Plus Real Time thermocycler (Bioer Technology Co., Ltd., Hangzhou, China). Primer sequences (Table S3) for the virulence-related genes agrA, clfA, hla, icaR, lukS-PV, and spa were used. The housekeeping gene gmk (guanylate kinase) was used for normalization.
(§5) Primer efficiency (90–110%) and specificity were confirmed by melt curve analysis. Relative expression levels were calculated using the ΔΔCt method, as reported by Livak et Schmittgen, comparing treated samples to their corresponding untreated controls in each medium. A log2 fold change ≥1 or ≤−1 was considered biologically significant. All experiments were performed in duplicate.

clfA = details: half MIC, 16–18 h, 37 °C, normalised to gmk, duplicate
Description: as §1, §2, §3, §4, §5

spa = details: half MIC, 16–18 h, 37 °C, normalised to gmk, duplicate
Description: as §1, §2, §3, §4, §5

icaR = test: Virulence gene expression, RT-qPCR; type: cell-based, S. aureus ATCC 25923; details: half MIC, 16–18 h, 37 °C, normalised to gmk, duplicate
Method: (§6) Untreated bacterial cultures in corresponding media served as controls.
(§7) All experiments were performed in duplicate.

lukSPV = test: Virulence gene expression, RT-qPCR; type: cell-based, S. aureus ATCC 25923; details: half MIC, 16–18 h, 37 °C, normalised to gmk, duplicate
Method: as §6, §7

hla = details: half MIC, 16–18 h, 37 °C, normalised to gmk, duplicate

Q: What does the source list for “MWARILGTVAKYGPKAVSWAWQHKWELINMGDLAFRYIQRIWG [Peptide G3A]”?
A: MBC (S. aureus ATCC 25923): 25 µg/mL; hemolytic activity, in words (sheep erythrocytes): no measurable hemolysis up to 25 µg/mL; concentration at which yolk sac retention was observed (Danio rerio embryos; 120 hpf): 6250 ng/mL; LC50 (zebrafish embryos) (Danio rerio embryos): 5.69 µg/mL; agrA expression, log2 fold-change vs untreated control (agrA; FBS): -0.47 log2 fold change; agrA expression, log2 fold-change vs untreated control (agrA; LB medium): -0.93 log2 fold change; clfA expression, log2 fold-change vs untreated control (clfA; FBS): -1.55 log2 fold change; clfA expression, log2 fold-change vs untreated control (clfA; LB medium): 0.76 log2 fold change; spa expression, log2 fold-change vs untreated control (spa; FBS): 1.43 log2 fold change; spa expression, log2 fold-change vs untreated control (spa; LB medium): 2.16 log2 fold change; icaR expression, log2 fold-change vs untreated control (icaR; FBS): -1.43 log2 fold change; icaR expression, log2 fold-change vs untreated control (icaR; LB medium): 0.06 log2 fold change; lukSPV expression, log2 fold-change vs untreated control (lukSPV; FBS): -1.54 log2 fold change; lukSPV expression, log2 fold-change vs untreated control (lukSPV; LB medium): 1.77 log2 fold change; hla expression, log2 fold-change vs untreated control (hla; FBS): -0.30 log2 fold change; hla expression, log2 fold-change vs untreated control (hla; LB medium): 0.60 log2 fold change

Q: “MWGRILATVAKYGPKAVSWAWQHKWELINMGDLAFRYIQRIWG [Peptide G7A]” was tested. Which MBC (S. aureus ATCC 25923) did it give?
A: Its MBC is 25 µg/mL.

Q: What about the “hemolytic activity, in words” value (sheep erythrocytes) of the same sequence?
A: The value was “some membrane-disruptive potential at elevated concentrations (50 µg/mL)”.

Q: What about the “concentration at which yolk sac retention was observed” value (Danio rerio embryos; 120 hpf) of the same sequence?
A: Its value is 3130 ng/mL.

Q: And the “concentration inducing lethal egg coagulation” value (Danio rerio embryos; 120 hpf)?
A: The value was 6250 ng/mL.

Q: What about the “LC50 (zebrafish embryos)” value (Danio rerio embryos) of the same sequence?
A: The value was 2.98 µg/mL.

Q: What about the “agrA expression, log2 fold-change vs untreated control” value (“agrA expression, log2 fold-change” for short) (agrA; FBS) of the same sequence?
A: Its value is 0.61 log2 fold change.

Q: And the “agrA expression, log2 fold-change” value (agrA; LB medium)?
A: The value was -0.32 log2 fold change.

Q: What about the “clfA expression, log2 fold-change vs untreated control” value (from here on “clfA expression, log2 fold-change”) (clfA; FBS) of the same sequence?
A: Its value is -0.69 log2 fold change.

Q: And the “clfA expression, log2 fold-change” value (clfA; LB medium)?
A: Its value is -0.59 log2 fold change.

Q: And the “spa expression, log2 fold-change vs untreated control” value (from here on “spa expression, log2 fold-change”) (spa; FBS)?
A: Its value is -0.27 log2 fold change.

Q: What about the “spa expression, log2 fold-change” value (spa; LB medium) of the same sequence?
A: Its value is 0.37 log2 fold change.

Q: And the “icaR expression, log2 fold-change vs untreated control” value (“icaR expression, log2 fold-change” for short) (icaR; FBS)?
A: Its value is 1.71 log2 fold change.

Q: And the “icaR expression, log2 fold-change” value (icaR; LB medium)?
A: Its value is 0.10 log2 fold change.

Q: What about the “lukSPV expression, log2 fold-change vs untreated control” value (from here on “lukSPV expression, log2 fold-change”) (lukSPV; FBS) of the same sequence?
A: The value was 1.22 log2 fold change.

Q: What about the “lukSPV expression, log2 fold-change” value (lukSPV; LB medium) of the same sequence?
A: The value was -2.88 log2 fold change.

Q: And the “hla expression, log2 fold-change vs untreated control” value (“hla expression, log2 fold-change” below) (hla; FBS)?
A: Its value is 0.51 log2 fold change.

Q: And the “hla expression, log2 fold-change” value (hla; LB medium)?
A: The value was -0.62 log2 fold change.

Q: “MWGRILGTVAKYAPKAVSWAWQHKWELINMGDLAFRYIQRIWG [Peptide G13A]” was tested. Which MBC (S. aureus ATCC 25923) did it give?
A: Its MBC is 12.5 µg/mL.

Q: What about the “hemolytic activity, in words” value (sheep erythrocytes) of the same sequence?
A: The value was “dose-dependent hemolysis”.

Q: What about the “Hemolytic activity (%) at 25 µg/mL” value (sheep erythrocytes; pH 7.4) of the same sequence?
A: The value was 22.69%.

Q: And the “Hemolytic activity (%) at 50 µg/mL” value (sheep erythrocytes; pH 7.4)?
A: Its value is 28.86%.

Q: And the “concentration at which yolk sac retention was observed” value (Danio rerio embryos; 120 hpf)?
A: Its value is 1560 ng/mL.

Q: And the “concentration causing general growth delay” value (Danio rerio embryos; 120 hpf)?
A: The value was 1560 ng/mL.

Q: What about the concentration causing hemorrhaging (Danio rerio embryos; 120 hpf) of the same sequence?
A: Its concentration causing hemorrhaging is 1560 ng/mL.

Q: What about the “concentration causing pericardial edema” value (Danio rerio embryos; 120 hpf) of the same sequence?
A: Its value is 1560 ng/mL.

Q: And the “concentration inducing lethal egg coagulation” value (Danio rerio embryos; 120 hpf)?
A: Its value is 1560 ng/mL.

Q: And the “embryo mortality, in words” value (Danio rerio embryos; 120 h dose–response)?
A: The value was “nearly complete mortality at concentrations ≥3.1 µg/mL”.

Q: And the “agrA expression, log2 fold-change” value (agrA; FBS)?
A: Its value is 0.82 log2 fold change.

Q: And the “agrA expression, log2 fold-change” value (agrA; LB medium)?
A: The value was -0.40 log2 fold change.

Q: What about the “clfA expression, log2 fold-change” value (clfA; FBS) of the same sequence?
A: Its value is 0.64 log2 fold change.

Q: And the “clfA expression, log2 fold-change” value (clfA; LB medium)?
A: The value was -0.19 log2 fold change.

Q: And the “spa expression, log2 fold-change” value (spa; FBS)?
A: Its value is 1.69 log2 fold change.

Q: And the “spa expression, log2 fold-change” value (spa; LB medium)?
A: The value was -0.32 log2 fold change and −0.33 log2 fold change.

Q: What about the “icaR expression, log2 fold-change” value (icaR; FBS) of the same sequence?
A: The value was 2.66 log2 fold change.

Q: And the “icaR expression, log2 fold-change” value (icaR; LB medium)?
A: The value was 0.36 log2 fold change.

Q: And the “lukSPV expression, log2 fold-change” value (lukSPV; FBS)?
A: Its value is 2.49 log2 fold change.

Q: What about the “lukSPV expression, log2 fold-change” value (lukSPV; LB medium) of the same sequence?
A: Its value is -2.28 log2 fold change.

Q: And the “hla expression, log2 fold-change” value (hla; FBS)?
A: The value was 1.04 log2 fold change.

Q: What about the “hla expression, log2 fold-change” value (hla; LB medium) of the same sequence?
A: The value was -0.11 log2 fold change.

— PMC12348470, “Amino Acid Substitutions in Bacteriocin Lactolisterin BU Reveal Functional Domains Involved in Biological Activity Against Staphylococcus aureus” (Molecules, 2025)
